In this experiment the target is T1, Human Glucocorticoid Receptor (hGR) (Homo sapiens, UniProt P04150).
T1 construct: the resultant supernatant (=cytosol of IM9 cells) was centrifuged at 103,000 g for 60 minutes; host or cells: IM9 human lymphoblast cell line (cytosol fraction)
T1 sequence (P04150 1-777): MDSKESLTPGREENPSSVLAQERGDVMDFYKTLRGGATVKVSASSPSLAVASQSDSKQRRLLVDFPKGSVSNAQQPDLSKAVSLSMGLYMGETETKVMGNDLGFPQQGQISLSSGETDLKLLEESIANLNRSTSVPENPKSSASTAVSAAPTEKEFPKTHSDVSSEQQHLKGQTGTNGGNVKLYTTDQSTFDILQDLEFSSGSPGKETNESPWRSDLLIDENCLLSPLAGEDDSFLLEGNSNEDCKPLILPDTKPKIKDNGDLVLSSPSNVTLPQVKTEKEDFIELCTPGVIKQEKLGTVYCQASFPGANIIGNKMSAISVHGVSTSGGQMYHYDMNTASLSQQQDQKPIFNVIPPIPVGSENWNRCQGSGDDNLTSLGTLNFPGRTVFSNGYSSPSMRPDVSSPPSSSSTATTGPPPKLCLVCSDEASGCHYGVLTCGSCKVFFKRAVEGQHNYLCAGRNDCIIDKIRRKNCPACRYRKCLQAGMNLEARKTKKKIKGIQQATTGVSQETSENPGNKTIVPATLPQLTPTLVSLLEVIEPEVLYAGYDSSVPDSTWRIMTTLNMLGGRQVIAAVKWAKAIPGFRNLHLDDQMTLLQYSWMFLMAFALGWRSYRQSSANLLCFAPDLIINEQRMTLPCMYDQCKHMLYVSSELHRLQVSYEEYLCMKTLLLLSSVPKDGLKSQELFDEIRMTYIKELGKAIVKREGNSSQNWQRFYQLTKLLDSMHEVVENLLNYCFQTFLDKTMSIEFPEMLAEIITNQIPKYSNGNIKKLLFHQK
Description: Human Glucocorticoid Receptor (hGR) Ligand-Binding Assay (competitive 3H-dexamethasone binding, IM9 cytosol). The note with it: read-out: % inhibition hGR at 1 μM. From the text:
Human Glucocorticoid Receptor (hGR) Ligand-Binding Assay
Potential selective glucocorticoid receptor modulators of this intervention can be tested for their binding affinity at the glucocorticoid receptor using the binding assay described below.
Preferably, the glucocortitcoid receptor extracted from cytosol of IM9 cells is used for competitive radioligand binding assays to calculate the IC50 values and binding affinity (Ki value) of the compounds according to the present invention. Preferably, a fixed concentration of the radioligand 3H-dexamethasone and a range of concentrations of compounds according to the present invention (as unlabeled competitors of dexamethasone) are mixed with the extracted glucocorticoid receptor in order to measure the potency/affinity with which they compete for the binding of the radioligand. Preferably, by using competition curves the IC50 which is the concentration of competing ligand that displaces 50% of the specific binding of the radioligand is determined. Finally this IC50 value is converted to a Ki value.
The human lymphoblast cell line IM9 (ATCC, Bethesda, Md.) were cultivated in RPMI 1640 media containing 10% fetal bovine serum, penicillin (100 U/ml), streptomycin (100 μg/ml), and 2 mM L-glutamine at […] and 7% CO2 in a humidified incubator. Cells were centrifuged for 10 minutes at 1500 g and were washed in PBS and repelleted. Cell were then resuspended in homogenization buffer consisting of: 10 mM TES, 10 mM sodium molybdate, 1 mM EDTA, pH 7.4, 20 mM 2-mercaptoethanol, and 10% glycerol. Disruption of the cells was performed by nitrogen cavitation using 2×15 minutes at 600 to 750 psi nitrogen in a N2 cavitator at 0° C. The cell preparation was then centrifuged at 27,000 g for 15 minutes, and the resultant supernatant (=cytosol of IM9 cells) was centrifuged at 103,000 g for 60 minutes at 4° C. The amount of protein in the supernatant fraction was determined using a BCA assay kit and aliquots were snap frozen in a dry ice-acetone bath and stored at −70° C. Competitive binding assays were done in duplicate in homogenization buffer with a total volume of 200 μl. To this end, 1 mg of IM9 cytosol, 0.05 μCi (1.5 nM) of 3H-dexamethasone […] and compounds according to the present invention (=unlabeled competitors of dexamethasone; range of concentrations) were mixed. The reaction was stopped after incubation at 0° C. for 16 to 18 hours by the addition of 100 μl of a charcoal-dextran mixture (2% activated charcoal, 0.5% dextran in 10 mM Tris, 1 mM EDTA, pH 7.4). Another incubation step at 0° C. for 10 minutes followed before the samples were centrifuged for 5 minutes at 8200 g. 100 μl of the supernatant) was finally assayed for radioactivity by liquid scintillationspectrometry, and the IC50 values were determined graphically and were converted to Ki values.

[1] abbreviates: compound at 1 μM, competition with 3H-dexamethasone, cytosol of IM9 cells.

The values below come from patent US10626106B2, “Substituted pyrrolidine amides I” (Gruenenthal GmbH, priority 2017, dated 2020).

Structures are written as SMILES. Like-named read-outs stand apart in the source and are kept apart here.

As to `COc1cc([C@@H]2[C@@H](NC(=O)C(C)(F)F)CC(=O)N2c2ccc3c(cnn3-c3ccc(=O)n(C)c3)c2)ccn1` [Example 42, 2,2-difluoro-N-((2R,3S)-2-(2-methoxypyridin-4-yl)-1-(1-(1-methyl-6-oxo-1,6-dihydropyridin-3-yl)-1H-indazol-5-yl)-5-oxopyrrolidin-3-yl)propanamide], under setting [1], the inhibition (commonly the relative decrease from the control value, in per cent) at 1 µM fell in the range of 60 to 85%.

On to `COc1ccc(Cn2ncc3cc(N4C(=O)C[C@H](NC(=O)C(C)(F)F)[C@H]4c4ccccc4)ccc32)cn1` (relative stereo) [Example 33, trans-2,2-difluoro-N-(1-(1-((6-methoxypyridin-3-yl)methyl)-1H-indazol-5-yl)-5-oxo-2-phenylpyrrolidin-3-yl)propanamide], for which the inhibition at 1 µM under setting [1] was greater than 85%.

`Cn1cc(-n2ncc3cc(N4C(=O)C[C@H](NC(=O)c5ncco5)[C@H]4c4ccccc4)ccc32)ccc1=O` [Example 49, N-[(2R,3S)-1-[1-(1-methyl-6-oxo-3-pyridyl)indazol-5-yl]-5-oxo-2-phenyl-pyrrolidin-3-yl]oxazole-2-carboxamide]: the inhibition at 1 µM under setting [1] was greater than 85%.

For `CC(F)(F)C(=O)N[C@H]1CC(=O)N(c2ccc3c(cnn3-c3cccnc3)c2)C1c1ccccc1` (stereo in doubt) [Example 7, trans-2,2-difluoro-N-(5-oxo-2-phenyl-1-(1-(pyridin-3-yl)-1H-indazol-5-yl)pyrrolidin-3-yl)propanamide], the inhibition at 1 µM is greater than 85%.

Take `Cn1cc(-n2ncc3cc(N4C(=O)C[C@H](NC(=O)C5CC5)[C@H]4c4ccccc4F)ccc32)ccc1=O` [Example 39, N-((2R,3S)-2-(2-fluorophenyl)-1-(1-(1-methyl-6-oxo-1,6-dihydropyridin-3-yl)-1H-indazol-5-yl)-5-oxopyrrolidin-3-yl)cyclopropanecarboxamide]: the inhibition at 1 µM under setting [1] lay within 60 to 85%.

Turning to `COc1cc([C@@H]2[C@@H](NC(=O)C(C)(F)F)CC(=O)N2c2ccc3c(cnn3-c3ccc(=O)n(C)c3)c2)ccc1F` [Example 15, 2,2-difluoro-N-((2R,3S)-2-(4-fluoro-3-methoxyphenyl)-1-(1-(1-methyl-6-oxo-1,6-dihydropyridin-3-yl)-1H-indazol-5-yl)-5-oxopyrrolidin-3-yl)propanamide], the inhibition at 1 µM under setting [1] fell in the range of 60 to 85%.

Consider `Cn1cc(-n2ncc3cc(N4C(=O)C[C@H](NC(=O)C5(F)CC5)[C@H]4c4ccccc4)ccc32)ccc1=O` [Example 18, 1-fluoro-N-((2R,3S)-1-(1-(1-methyl-6-oxo-1,6-dihydropyridin-3-yl)-1H-indazol-5-yl)-5-oxo-2-phenylpyrrolidin-3-yl)cyclopropanecarboxamide], for which, under setting [1], the inhibition at 1 µM is greater than 85%.

Consider `Cn1cc(-n2ncc3cc(N4C(=O)C[C@H](NC(=O)C(C)(F)F)[C@H]4c4ccccc4F)ccc32)ccc1=O` [Example 6, 2,2-difluoro-N-((2R,3S)-2-(2-fluorophenyl)-1-(1-(1-methyl-6-oxo-1,6-dihydropyridin-3-yl)-1H-indazol-5-yl)-5-oxopyrrolidin-3-yl)propanamide], for which, under setting [1], the inhibition at 1 µM is greater than 85%.

On to `Cn1cc(-n2ncc3cc(N4C(=O)C[C@H](NC(=O)C(C)(F)F)[C@H]4c4ccc(F)cc4)ccc32)ccc1=O` [Example 17, 2,2-difluoro-N-((2R,3S)-2-(4-fluorophenyl)-1-(1-(1-methyl-6-oxo-1,6-dihydropyridin-3-yl)-1H-indazol-5-yl)-5-oxopyrrolidin-3-yl)propanamide], for which the inhibition at 1 µM was greater than 85%.

As to `Cn1cc(-n2ncc3cc(N4C(=O)C[C@H](NC(=O)C(C)(F)F)[C@H]4c4ccccc4)ccc32)ccc1=O` [Example 4, 2,2-difluoro-N-((2R,3S)-1-(1-(1-methyl-6-oxo-1,6-dihydropyridin-3-yl)-1H-indazol-5-yl)-5-oxo-2-phenylpyrrolidin-3-yl)propanamide], the inhibition at 1 µM was greater than 85%.

For `Cn1cc(-n2ncc3cc(N4C(=O)C[C@H](NC(=O)C(C)(F)F)[C@H]4c4cccc(Cl)c4)ccc32)ccc1=O` [Example 1, N-((2R,3S)-2-(3-chlorophenyl)-1-(1-(1-methyl-6-oxo-1,6-dihydropyridin-3-yl)-1H-indazol-5-yl)-5-oxopyrrolidin-3-yl)-2,2-difluoropropanamide], under setting [1], the inhibition at 1 µM was greater than 85%.

As for `CC(F)(F)C(=O)N[C@H]1CC(=O)N(c2ccc3c(cnn3C3CCN(C(=O)C4CC4)CC3)c2)C1c1ccccc1` (stereo in doubt) [Example 35, trans-2,2-difluoro-N-(1-(1-(1-(cyclopropanecarbonyl)piperidin-4-yl)-1H-indazol-5-yl)-5-oxo-2-phenylpyrrolidin-3-yl)propanamide], the inhibition at 1 µM under setting [1] is 60 to 85%.

For the molecule `Cn1cc(-n2ncc3cc(N4C(=O)C[C@H](NC(=O)C(C)(F)F)C4c4ccc(F)cc4F)ccc32)ccc1=O` (stereo in doubt) [Example 2, trans-2,2-difluoro-N-(5-oxo-2-(2,4-difluorophenyl)-1-(1-(1-methyl-6-oxo-1,6-dihydropyridin-3-yl)-1H-indazol-5-yl)pyrrolidin-3-yl)propanamide], under setting [1], the inhibition at 1 µM is greater than 85%.

Take `COc1cc(Cn2ncc3cc(N4C(=O)C[C@H](NC(=O)C5CC5)C4c4ccccc4)ccc32)ccn1` (stereo in doubt) [Example 40, trans-N-(1-(1-((2-methoxypyridin-4-yl)methyl)-1H-indazol-5-yl)-5-oxo-2-phenylpyrrolidin-3-yl)cyclopropanecarboxamide]: under setting [1], the inhibition at 1 µM fell in the range of 40 to 60%.

For the molecule `CC(F)(F)C(=O)N[C@H]1CC(=O)N(c2ccc3c(cnn3-c3ccncc3)c2)C1c1ccccc1` (stereo in doubt) [Example 23, trans-2,2-difluoro-N-(5-oxo-2-phenyl-1-(1-(pyridin-4-yl)-1H-indazol-5-yl)pyrrolidin-3-yl)propanamide], the inhibition at 1 µM is greater than 85%.

With `Cn1cc(-n2ncc3cc(N4C(=O)C[C@H](NC(=O)C5(C)CC5)[C@H]4c4ccccc4)ccc32)ccc1=O` [Example 26, 1-methyl-N-((2R,3S)-1-(1-(1-methyl-6-oxo-1,6-dihydropyridin-3-yl)-1H-indazol-5-yl)-5-oxo-2-phenylpyrrolidin-3-yl)cyclopropane-1-carboxamide], under setting [1], the inhibition at 1 µM was in the range of 60 to 85%.

Regarding `Cn1cc(-n2ncc3cc(N4C(=O)C[C@H](NC(=O)C(C)(F)F)[C@H]4c4cccc(F)c4)ccc32)ccc1=O` [Example 5, 2,2-difluoro-N-((2R,3S)-2-(3-fluorophenyl)-1-(1-(1-methyl-6-oxo-1,6-dihydropyridin-3-yl)-1H-indazol-5-yl)-5-oxopyrrolidin-3-yl)propanamide], the inhibition at 1 µM under setting [1] is greater than 85%.

As for `Cc1nc(C(=O)N[C@H]2CC(=O)N(c3ccc4c(cnn4-c4ccc(=O)n(C)c4)c3)[C@@H]2c2ccccc2)no1` [Example 51, 5-methyl-N-[(2R,3S)-1-[1-(1-methyl-6-oxo-3-pyridyl)indazol-5-yl]-5-oxo-2-phenyl-pyrrolidin-3-yl]-1,2,4-oxadiazole-3-carboxamide], the inhibition at 1 µM under setting [1] was greater than 85%.
